According to patent publication US11033556B2, “Bicyclic sulfonamides” (priority 2019, dated 2021):

system: genotype D HBV; test: HBV-DNA Antiviral Assay Using HepG2.117 Cells; assay type: cell-based; conditions: Hepatitis B virus, HepG2.117, 96 h, intracellular HBV DNA by qPCR, day 4
Description: The following assay procedure describes the HBV antiviral assay, using HepG2.117 cells, which carry a stably integrated genotype D HBV genome under the control of a Tet-off promoter, and intracellular HBV DNA quantification as endpoint. Cell viability is assessed in parallel by measuring the intracellular ATP content using ATPlite (Perkin Elmer).
On day 0, HepG2.117 cells (which are maintained in routine cell culture with doxycycline present in the medium at a final concentration of 1 μg/mL) were seeded in 96-well plates (white with clear bottom) at a density of 2.0×10^4 cells/well (0.1 mL/well) in medium without doxycycline to induce pgRNA transcription and subsequent formation of HBV particles. The cells were incubated at 37° C. and 5% CO2.
On day 1, medium was removed from each well, the test articles were diluted in culture medium without doxcycyline and 100 μL was added to cell culture wells (9 concentrations, 4-fold dilution). For each plate, 6 untreated (merely DMSO) wells were included. The final concentration of DMSO in the culture medium was 2%. Each plate was prepared in duplicate (one for HBV DNA extraction, one for ATPlite measurement). The cells were incubated at 37° C. and 5% CO2 for 3 days.
On day 4, cell viability was assessed using ATPlite and cell lysates were prepared for HBV DNA extraction and subsequent quantification by qPCR.
Medium was removed from each well and 100 μL of 0.33% NP-40 in H2O was added to each well. Plates were sealed, incubated at 4° C. for 5 mins, vortexed extensively and centrifuged briefly. Next, 35 μL of lysate was added to 65 μL QuickExtract DNA Extraction Solution (Epicentre) in a PCR plate for each well. PCR plate was incubated at 65° C. for 6 mins, 98° C. for 2 mins and finally cooled to 4° C. HBV DNA was then quantified by qPCR with HBV-specific primers and probes as specified in Table 4 using the Bio-Rad SSOAdvanced Universal Probes Supermix on a CFX96 machine (Bio-Rad). The PCR cycle program consisted of 95° C. for 3 mins, followed by 40 cycles at 95° C. for 10 sec and 60° C. for 30 sec.
A DNA standard was prepared by dilution of an IDT gBlock corresponding to the amplicon with concentrations ranging from 10^2 to 10^8 copies/input (i.e. per 4 μL) and used to generate a standard curve by plotting Cq values vs. HBV DNA standard concentration. The quantity of HBV DNA in each sample was determined by interpolating from the standard curve.
Cell viability was calculated as follows: % Cell viability=(luminescence value of test sample)/(average luminescence value of 2% DMSO control)×100%. HBV DNA inhibition was calculated as follows: 100−(HBV DNA copy number of test sample)/(average HBV DNA copy number of 2% DMSO control)×100%. No normalization to entecavir was required due to the excellent dynamic window of this assay. The CC50, EC50 and EC90 values were determined by dose-response curves fitted by GraphPad Prism using “log (agonist) vs. response—Variable slope”.

| Structure (SMILES) | EC50 [nM] |
| --- | --- |
| C=C[C@H]1CCc2c(cn(C)c2C(=O)Nc2ccc(F)c(C#N)c2)S(=O)(=O)N1 [Compound 8] | 1 to 10 |
| C=C[C@@]1(CO)CCc2c(cn(C)c2C(=O)Nc2ccc(F)c(C(F)(F)F)c2)S(=O)(=O)N1 [Compound 9A] | 10 to 100 |
| C=C[C@]1(CO)CCc2c(cn(C)c2C(=O)Nc2ccc(F)c(C(F)(F)F)c2)S(=O)(=O)N1 [Compound 9B] | 10 to 100 |
| C=C[C@@]1(CO)CCc2c(cn(C)c2C(=O)Nc2ccc(F)c(C#N)c2)S(=O)(=O)N1 [Compound 10A] | 10 to 100 |
| C=C[C@]1(CO)CCc2c(cn(C)c2C(=O)Nc2ccc(F)c(C#N)c2)S(=O)(=O)N1 [Compound 10B] | 10 to 100 |
| C=C[C@](C)(O)[C@H]1CCc2c(cn(C)c2C(=O)Nc2ccc(F)c(C#N)c2)S(=O)(=O)N1 [Compound 11A] | 1 to 10 |
| C=C[C@@](C)(O)[C@H]1CCc2c(cn(C)c2C(=O)Nc2ccc(F)c(C#N)c2)S(=O)(=O)N1 [Compound 11B] | 1 to 10 |
| C#C[C@](C)(O)[C@H]1CCc2c(cn(C)c2C(=O)Nc2ccc(F)c(C#N)c2)S(=O)(=O)N1 [Compound 12A] | 10 to 100 |
| C#C[C@@](C)(O)[C@H]1CCc2c(cn(C)c2C(=O)Nc2ccc(F)c(C#N)c2)S(=O)(=O)N1 [Compound 12B] | 10 to 100 |
| Cn1cc2c(c1C(=O)Nc1ccc(F)c(C#N)c1)OC[C@H](CC=C(F)F)NS2(=O)=O [Compound 13] | 1 to 10 |
| C=C[C@H](O)[C@H]1COc2c(cn(C)c2C(=O)Nc2ccc(F)c(C#N)c2)S(=O)(=O)N1 [Compound 14A] | 1 to 10 |
| C=C[C@@H](O)[C@H]1COc2c(cn(C)c2C(=O)Nc2ccc(F)c(C#N)c2)S(=O)(=O)N1 [Compound 14B] | 1 to 10 |
| C=C[C@]1(C)COc2c(cn(C)c2C(=O)Nc2ccc(F)c(C#N)c2)S(=O)(=O)N1 [Compound 15A] | 1 to 10 |
| C=C[C@@]1(C)COc2c(cn(C)c2C(=O)Nc2ccc(F)c(C#N)c2)S(=O)(=O)N1 [Compound 15B] | 1 to 10 |
| C=CC[C@]1(C)COc2c(cn(C)c2C(=O)Nc2ccc(F)c(C#N)c2)S(=O)(=O)N1 [Compound 16A] | 1 to 10 |
| C=CC[C@@]1(C)COc2c(cn(C)c2C(=O)Nc2ccc(F)c(C#N)c2)S(=O)(=O)N1 [Compound 16B] | 1 to 10 |
| C=CC[C@H](O)[C@H]1COc2c(cn(C)c2C(=O)Nc2ccc(F)c(C#N)c2)S(=O)(=O)N1 [Compound 17A] | 1 to 10 |
| C=CC[C@@H](O)[C@H]1COc2c(cn(C)c2C(=O)Nc2ccc(F)c(C#N)c2)S(=O)(=O)N1 [Compound 17B] | 1 to 10 |
| C#C[C@H](O)[C@H]1COc2c(cn(C)c2C(=O)Nc2ccc(F)c(C#N)c2)S(=O)(=O)N1 [Compound 18] | 1 to 10 |

| Structure (SMILES) | EC50 [nM] |
| --- | --- |
| CC#C[C@H](O)[C@H]1COc2c(cn(C)c2C(=O)Nc2ccc(F)c(C#N)c2)S(=O)(=O)N1 [Compound 19A] | 1 to 10 |
| CC#C[C@@H](O)[C@H]1COc2c(cn(C)c2C(=O)Nc2ccc(F)c(C#N)c2)S(=O)(=O)N1 [Compound 19B] | 1 to 10 |
| C=C[C@@](O)([C@H]1COc2c(cn(C)c2C(=O)Nc2ccc(F)c(C(F)(F)F)c2)S(=O)(=O)N1)C(F)(F)F [Compound 20] | 1 to 10 |
| C=C[C@](O)([C@@H]1COc2c(cn(C)c2C(=O)Nc2ccc(F)c(C#N)c2)S(=O)(=O)N1)C(F)(F)F [Compound 21] | 10 to 100 |
| CC#C[C@H](O)[C@H]1COc2c(cn(C)c2C(=O)Nc2ccc(F)c(C(F)(F)F)c2)S(=O)(=O)N1 [Compound 22A] | 10 to 100 |
| CC#C[C@@H](O)[C@H]1COc2c(cn(C)c2C(=O)Nc2ccc(F)c(C(F)(F)F)c2)S(=O)(=O)N1 [Compound 22B] | 1 to 10 |
| C=C[C@@]1(C)COc2c(cn(C)c2C(=O)Nc2ccc(F)c(C(F)(F)F)c2)S(=O)(=O)N1 [Compound 23A] | 1 to 10 |
| C=C[C@]1(C)COc2c(cn(C)c2C(=O)Nc2ccc(F)c(C(F)(F)F)c2)S(=O)(=O)N1 [Compound 23B] | 1 to 10 |
| C=C[C@H]1COc2c(cn(C)c2C(=O)Nc2ccc(F)c(C(F)(F)F)c2)S(=O)(=O)N1 [Compound 24] | 1 to 10 |
| C=CC[C@@H](O)[C@@H]1COc2c(cn(C)c2C(=O)Nc2ccc(F)c(C#N)c2)S(=O)(=O)N1 [Compound 25A] | 10 to 100 |
| C=CC[C@H](O)[C@@H]1COc2c(cn(C)c2C(=O)Nc2ccc(F)c(C#N)c2)S(=O)(=O)N1 [Compound 25B] | 10 to 100 |
| C=C[C@](O)([C@@H]1COc2c(cn(C)c2C(=O)Nc2ccc(F)c(C(F)(F)F)c2)S(=O)(=O)N1)C(F)(F)F [Compound 26] | 10 to 100 |
| C=C[C@@H](C)[C@H]1COc2c(cn(C)c2C(=O)Nc2ccc(F)c(C#N)c2)S(=O)(=O)N1 [Compound 27A] | 10 to 100 |
| C=C[C@H](C)[C@@H]1COc2c(cn(C)c2C(=O)Nc2ccc(F)c(C#N)c2)S(=O)(=O)N1 [Compound 27B] | 1 to 10 |
| C=C[C@H](C)[C@H]1COc2c(cn(C)c2C(=O)Nc2ccc(F)c(C#N)c2)S(=O)(=O)N1 [Compound 27C] | 10 to 100 |
| C=C[C@@H](C)[C@@H]1COc2c(cn(C)c2C(=O)Nc2ccc(F)c(C#N)c2)S(=O)(=O)N1 [Compound 27D] | < 1 |
| C=C[C@@](C)(O)[C@H]1COc2c(cn(C)c2C(=O)Nc2ccc(F)c(C#N)c2)S(=O)(=O)N1 [Compound 28A] | 1 to 10 |
| C=C[C@](C)(O)[C@H]1COc2c(cn(C)c2C(=O)Nc2ccc(F)c(C#N)c2)S(=O)(=O)N1 [Compound 28B] | 1 to 10 |
| C=C[C@@](C)(O)[C@H]1COc2c(cn(C)c2C(=O)Nc2ccc(F)c(C(F)(F)F)c2)S(=O)(=O)N1 [Compound 29A] | 10 to 100 |

| Structure (SMILES) | EC50 [nM] |
| --- | --- |
| C=C[C@](C)(O)[C@H]1COc2c(cn(C)c2C(=O)Nc2ccc(F)c(C(F)(F)F)c2)S(=O)(=O)N1 [Compound 29B] | 1 to 10 |
| C=C[C@@]1(CO)COc2c(cn(C)c2C(=O)Nc2ccc(F)c(C#N)c2)S(=O)(=O)N1 [Compound 30A] | 1 to 10 |
| C=C[C@]1(CO)COc2c(cn(C)c2C(=O)Nc2ccc(F)c(C#N)c2)S(=O)(=O)N1 [Compound 30B] | 10 to 100 |
| C=C[C@@]1(CO)COc2c(cn(C)c2C(=O)Nc2ccc(F)c(C(F)(F)F)c2)S(=O)(=O)N1 [Compound 31A] | 1 to 10 |
| C=C[C@]1(CO)COc2c(cn(C)c2C(=O)Nc2ccc(F)c(C(F)(F)F)c2)S(=O)(=O)N1 [Compound 31B] | 1 to 10 |
| C=C(C)[C@H]1COc2c(cn(C)c2C(=O)Nc2ccc(F)c(C#N)c2)S(=O)(=O)N1 [Compound 32] | 1 to 10 |
| C=C(C)[C@H]1COc2c(cn(C)c2C(=O)Nc2ccc(F)c(C(F)(F)F)c2)S(=O)(=O)N1 [Compound 33] | 1 to 10 |
| C=CC(O)([C@H]1COc2c(cn(C)c2C(=O)Nc2ccc(F)c(C#N)c2)S(=O)(=O)N1)C(F)(F)F (some centres unmarked) [Compound 34] | < 1 |
| C#C[C@](C)(O)[C@H]1COc2c(cn(C)c2C(=O)Nc2ccc(F)c(C#N)c2)S(=O)(=O)N1 [Compound 35A] | 1 to 10 |
| C#C[C@@](C)(O)[C@H]1COc2c(cn(C)c2C(=O)Nc2ccc(F)c(C#N)c2)S(=O)(=O)N1 [Compound 35B] | 1 to 10 |
| C#C[C@](C)(O)[C@H]1COc2c(cn(C)c2C(=O)Nc2ccc(F)c(C(F)(F)F)c2)S(=O)(=O)N1 [Compound 36A] | 10 to 100 |
| C#C[C@@](C)(O)[C@H]1COc2c(cn(C)c2C(=O)Nc2ccc(F)c(C(F)(F)F)c2)S(=O)(=O)N1 [Compound 36B] | 1 to 10 |
| C#CC(O)([C@H]1COc2c(cn(C)c2C(=O)Nc2ccc(F)c(C#N)c2)S(=O)(=O)N1)C(F)(F)F (some centres unmarked) [Compound 37] | 10 to 100 |
| C=C[C@@]1([C@H](C)O)COc2c(cn(C)c2C(=O)Nc2ccc(F)c(C#N)c2)S(=O)(=O)N1 [Compound 38A] | 10 to 100 |
| C=C[C@]1([C@@H](C)O)COc2c(cn(C)c2C(=O)Nc2ccc(F)c(C#N)c2)S(=O)(=O)N1 [Compound 38B] | 10 to 100 |
| C=C[C@]1([C@H](C)O)COc2c(cn(C)c2C(=O)Nc2ccc(F)c(C#N)c2)S(=O)(=O)N1 [Compound 38C] | 1 to 10 |
| C=C[C@@]1([C@@H](C)O)COc2c(cn(C)c2C(=O)Nc2ccc(F)c(C#N)c2)S(=O)(=O)N1 [Compound 38D] | 100 to 1000 |
| C=CC1([C@H]2COc3c(cn(C)c3C(=O)Nc3ccc(F)c(C#N)c3)S(=O)(=O)N2)CCOCC1 [Compound 39A] | 10 to 100 |
